# Reference: ChEMBL document CHEMBL5505985 (Eur J Med Chem, 2024)
# Active and inactive are the calls of the source. The rule behind the calls is not given here.
# Legend:
# [1] = system: Mus musculus; assay: Antiinflammatory activity against DSS-induced ulcerative colitis BALB/c mouse assessed as amelioration of crypt architecture loss at 0.25 mg/kg, po for 5 days and measured after 12 days; format: functional, organism-based; settings: time 12.0 day
# [2] = system: RAW264.7; assay: Antiinflammatory activity in LPS-induced mouse RAW264.7 cells assessed as downregulation of IL-6 secretion preincubated for 1 hr followed by LPS stimulation and measured after 24 hrs by ELISA method; format: functional, cell-based; settings: dose 2-30 µM, time 25.0 hrs
# [3] = system: RAW264.7; assay: Inhibition of MAPK signalling pathway in LPS induced mouse RAW264.7 cells assessed as effect on ERK phosphorylation level at 10 to 30 uM preincubated for 1 hr followed by LPS stimulation and measured after 30 mins by Westernblot analysis; format: cell-based; settings: dose 10-30 µM, time 1.5 hrs
# [4] = biological target: T1, Prostaglandin G/H synthase 1 (Ovis aries, UniProt P05979); assay: Inhibition of sheep COX-1 using arachidonic acid as substrate pretreated for 5 mins followed by substrate addition and measured after 2 mins by fluorescence based analysis
# T1 sequence (P05979 whole entry): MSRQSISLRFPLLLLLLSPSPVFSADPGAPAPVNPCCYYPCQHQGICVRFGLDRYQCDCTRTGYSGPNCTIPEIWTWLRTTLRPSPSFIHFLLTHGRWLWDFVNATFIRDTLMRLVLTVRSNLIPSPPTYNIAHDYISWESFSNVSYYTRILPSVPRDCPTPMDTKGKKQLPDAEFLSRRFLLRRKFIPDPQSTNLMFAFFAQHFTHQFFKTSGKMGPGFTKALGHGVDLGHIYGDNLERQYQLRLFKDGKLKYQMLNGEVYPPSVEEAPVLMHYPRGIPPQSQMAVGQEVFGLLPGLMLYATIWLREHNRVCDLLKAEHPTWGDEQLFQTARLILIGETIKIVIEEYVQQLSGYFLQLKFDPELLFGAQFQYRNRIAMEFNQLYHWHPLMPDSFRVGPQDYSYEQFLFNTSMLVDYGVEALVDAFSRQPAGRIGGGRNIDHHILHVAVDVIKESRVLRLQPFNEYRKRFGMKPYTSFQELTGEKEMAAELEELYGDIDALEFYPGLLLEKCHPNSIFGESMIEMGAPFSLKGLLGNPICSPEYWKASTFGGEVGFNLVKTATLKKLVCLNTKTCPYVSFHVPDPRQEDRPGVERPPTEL
# [5] = biological target: T2, Prostaglandin G/H synthase 2 (Homo sapiens, UniProt P35354); assay: Inhibition of human recombinant COX-2 using arachidonic acid as substrate pretreated for 5 mins followed by substrate addition and measured after 2 mins by fluorescence based analysis
# T2 sequence (P35354 whole entry): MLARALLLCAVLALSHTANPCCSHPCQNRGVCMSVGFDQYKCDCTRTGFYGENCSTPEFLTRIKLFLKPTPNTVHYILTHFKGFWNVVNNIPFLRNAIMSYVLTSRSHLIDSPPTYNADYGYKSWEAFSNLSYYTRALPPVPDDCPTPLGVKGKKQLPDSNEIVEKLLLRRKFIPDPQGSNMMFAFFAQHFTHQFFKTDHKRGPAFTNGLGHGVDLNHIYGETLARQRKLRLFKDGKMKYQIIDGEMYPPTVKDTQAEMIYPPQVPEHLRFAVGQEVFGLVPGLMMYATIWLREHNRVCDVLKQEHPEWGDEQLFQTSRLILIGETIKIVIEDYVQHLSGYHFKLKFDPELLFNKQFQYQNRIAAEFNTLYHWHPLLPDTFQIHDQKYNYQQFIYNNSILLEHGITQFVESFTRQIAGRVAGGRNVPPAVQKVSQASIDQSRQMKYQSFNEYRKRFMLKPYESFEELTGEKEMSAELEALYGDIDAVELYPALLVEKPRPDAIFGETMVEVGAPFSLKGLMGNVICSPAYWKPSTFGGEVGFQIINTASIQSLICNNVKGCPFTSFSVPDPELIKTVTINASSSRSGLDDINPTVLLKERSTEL
smiles,measurement,setting,value
COc1ccccc1C1=Nn2c(Cc3ccccc3Nc3c(Cl)cccc3Cl)nnc2SC1,Activity,[1],Active
same,Activity,[2],Dose-Dependent Effect
same,inhibition,[3],inactive
same,IC50,[4],26.3 µM
same,IC50,[5],1.53 µM
